Laboratory results as given in PubChem BioAssay AID248 (DTP/NCI, 2004).
Where “and” joins values, the source holds several entries; their conditions need not be identical. Identical values can stand only once. Toxic doses and inconclusive results are not listed.

Test system: L1210 leukemia ip in BDF1 mice, survival T/C
Assay: NCI In Vivo Anticancer Drug Screen. Data for tumor model L1210 Leukemia (intraperitoneal) in B6D2F1 (BDF1) mice
Conditions: endpoint: mean survival time, higher = longer survival
In short: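 Antitumor effect is assessed in tumor-bearing animals. Survival in the compound arm is compared with a vehicle-dosed control arm and expressed as their quotient.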

[1] = dose: 100.0 mg/kg/injection, schedule: Q01DX001 (ip), vehicle: saline
[2] = dose: 200.0 mg/kg/injection, schedule: Q01DX001 (ip), vehicle: saline
[3] = dose: 400.0 mg/kg/injection, schedule: Q01DX001 (ip), vehicle: saline
[4] = dose: 100.0 mg/kg/injection, schedule: Q01DX009 (ip), vehicle: saline with Tween-80
[5] = dose: 100.0 mg/kg/injection, schedule: Q04DX003 (ip), vehicle: saline with Tween-80
[6] = dose: 200.0 mg/kg/injection, schedule: Q01DX009 (ip), vehicle: saline with Tween-80
[7] = dose: 200.0 mg/kg/injection, schedule: Q04DX003 (ip), vehicle: saline with Tween-80
[8] = dose: 400.0 mg/kg/injection, schedule: Q01DX009 (ip), vehicle: saline with Tween-80

**Q.** How did the T/C (dose: 0.78 mg/kg/injection, schedule: Q04DX003 (ip), vehicle: saline) turn out when `FC(F)(F)c1ccc2c(c1)N(CCCN1CCN(CCC3OCCCO3)CC1)c1ccccc1S2` was run?
**A.** Its T/C is 102 % of control.

**Q.** What about the T/C (dose: 1.56 mg/kg/injection, schedule: Q04DX003 (ip), vehicle: saline) of the same compound?
**A.** Its T/C is 101 % of control.

**Q.** What about the T/C (dose: 3.12 mg/kg/injection, schedule: Q04DX003 (ip), vehicle: saline) of the same compound?
**A.** Its T/C is 102 % of control.

**Q.** And the T/C (dose: 6.25 mg/kg/injection, schedule: Q04DX003 (ip), vehicle: saline)?
**A.** The T/C was 96 % of control.

**Q.** What about the T/C (dose: 12.5 mg/kg/injection, schedule: Q04DX003 (ip), vehicle: saline) of the same compound?
**A.** The T/C was 112 % of control.

**Q.** How did the T/C (dose: 95.0 mg/kg/injection, schedule: Q01DX Z (oral), vehicle: carboxymethylcellulose (CMC)) turn out when `CC(/C=N/N=C(\N)N(C)C)=N\N=C(/N)N(C)C` was run?
**A.** Its T/C is 104 % of control.

**Q.** What about the T/C (dose: 190.0 mg/kg/injection, schedule: Q01DX Z (oral), vehicle: carboxymethylcellulose (CMC)) of the same compound?
**A.** The T/C was 110 % of control.

**Q.** What about the T/C (dose: 240.0 mg/kg/injection, schedule: Q01DX Z (ip), vehicle: carboxymethylcellulose (CMC)) of the same compound?
**A.** Its T/C is 96 % of control.

**Q.** And the T/C (dose: 380.0 mg/kg/injection, schedule: Q01DX Z (oral), vehicle: carboxymethylcellulose (CMC))?
**A.** The T/C was 106 % of control.

**Q.** And the T/C (dose: 760.0 mg/kg/injection, schedule: Q01DX Z (oral), vehicle: carboxymethylcellulose (CMC))?
**A.** Its T/C is 112 % of control.

**Q.** Which T/C [1] does the source give for `Nc1ccc(N=Nc2c(Br)cc(S(N)(=O)=O)cc2Br)c(N)n1` here?
**A.** The T/C was 102 % of control.

**Q.** And the T/C [2]?
**A.** Its T/C is 100 % of control.

**Q.** And the T/C [3]?
**A.** Its T/C is 94 % of control.

**Q.** What does the source list for `NC(=S)c1n[nH]nc1N`?
**A.** T/C (dose: 50.0 mg/kg/injection, schedule: Q01DX001 (ip), vehicle: saline): 104 % of control; T/C [1]: 100 % of control; T/C [2]: 100 % of control

**Q.** What does the source list for `CN(C)S(=O)(=O)c1ccc(NC(=O)OCc2ccccc2)cc1`?
**A.** T/C [1]: 96 % of control; T/C [2]: 94 % of control; T/C [3]: 92 % of control

**Q.** What does the source list for `CCOc1ccc(Br)cc1/C=N/NS(=O)(=O)c1ccc(C)cc1`?
**A.** T/C [4]: 94 % of control; T/C [5]: 97 % of control; T/C [6]: 97 % of control; T/C [7]: 103 % of control; T/C [8]: 101 % of control; T/C (dose: 400.0 mg/kg/injection, schedule: Q04DX003 (ip), vehicle: saline with Tween-80): 103 % of control

**Q.** `CN(C)c1ccc(N=O)cc1` was tested. Which T/C (dose: 0.78 mg/kg/injection, schedule: Q04DX002 (ip), vehicle: saline) did it give?
**A.** The T/C was 89 % of control.

**Q.** What about the T/C (dose: 1.56 mg/kg/injection, schedule: Q01DX009 (ip), vehicle: saline) of the same compound?
**A.** The T/C was 93 % of control.

**Q.** What about the T/C (dose: 1.56 mg/kg/injection, schedule: Q04DX002 (ip), vehicle: saline) of the same compound?
**A.** Its T/C is 95 % of control.

**Q.** And the T/C (dose: 3.13 mg/kg/injection, schedule: Q01DX009 (ip), vehicle: saline)?
**A.** The T/C was 93 % of control.

**Q.** And the T/C (dose: 3.13 mg/kg/injection, schedule: Q04DX002 (ip), vehicle: saline)?
**A.** The T/C was 95 % of control.

**Q.** And the T/C (dose: 6.25 mg/kg/injection, schedule: Q01DX009 (ip), vehicle: saline)?
**A.** The T/C was 97 % of control.

**Q.** And the T/C (dose: 6.25 mg/kg/injection, schedule: Q04DX002 (ip), vehicle: saline)?
**A.** Its T/C is 100 % of control.

**Q.** `CCCCCCCCOC(=O)c1ccc2c(c1)Nc1cc3ccccc3cc1N2` was tested. Which T/C (dose: 100.0 mg/kg/injection, schedule: Q04DX002 (ip), vehicle: Klucel (hydroxypropylcellulose) (HPC)) did it give?
**A.** Its T/C is 105 % of control.

**Q.** And the T/C (dose: 200.0 mg/kg/injection, schedule: Q04DX002 (ip), vehicle: Klucel (hydroxypropylcellulose) (HPC))?
**A.** The T/C was 101 % of control.

**Q.** And the T/C (dose: 400.0 mg/kg/injection, schedule: Q04DX002 (ip), vehicle: Klucel (hydroxypropylcellulose) (HPC))?
**A.** Its T/C is 92 % of control.

**Q.** For `CC(C)(O)C(=O)N/N=C/c1ccc(Cl)cc1Cl`, which T/C (dose: 25.0 mg/kg/injection, schedule: Q01DX009 (ip), vehicle: saline with Tween-80) is on record?
**A.** The T/C was 102 % of control.

**Q.** For `CCOC(=S)SCCC(=O)O`, which T/C [4] is on record?
**A.** Its T/C is 95 % of control.

**Q.** `CSCCO` was tested. Which T/C (dose: 100.0 mg/kg/injection, schedule: Q01DX009 (ip), vehicle: saline) did it give?
**A.** Its T/C is 89 % of control.

**Q.** What about the T/C (dose: 100.0 mg/kg/injection, schedule: Q04DX003 (ip), vehicle: saline sonified) of the same compound?
**A.** Its T/C is 102 % of control.

**Q.** What about the T/C (dose: 200.0 mg/kg/injection, schedule: Q01DX009 (ip), vehicle: saline) of the same compound?
**A.** The T/C was 100 % of control.

**Q.** What about the T/C (dose: 200.0 mg/kg/injection, schedule: Q04DX003 (ip), vehicle: saline sonified) of the same compound?
**A.** The T/C was 116 % of control.

**Q.** What about the T/C (dose: 400.0 mg/kg/injection, schedule: Q01DX009 (ip), vehicle: saline) of the same compound?
**A.** Its T/C is 96 % of control.

**Q.** And the T/C (dose: 400.0 mg/kg/injection, schedule: Q04DX003 (ip), vehicle: saline sonified)?
**A.** The T/C was 98 % of control.

**Q.** How did the T/C [1] turn out when `CC(=O)Nc1ccc(Cc2ccc(Br)cc2)cc1` was run?
**A.** The T/C was 96 % of control.

**Q.** And the T/C [2]?
**A.** Its T/C is 106 % of control.

**Q.** For `CC(C)(C)OC(=O)CC1(C)CCC2C1C(=O)OC2(C)C` (stereo unspecified), which T/C (dose: 25.0 mg/kg/injection, schedule: Q04DX003 (ip), vehicle: saline) is on record?
**A.** Its T/C is 98 % of control.

**Q.** And the T/C (dose: 50.0 mg/kg/injection, schedule: Q04DX003 (ip), vehicle: saline)?
**A.** The T/C was 98 % of control.

**Q.** What about the T/C [1] of the same compound?
**A.** Its T/C is 91 % of control.

**Q.** And the T/C (dose: 100.0 mg/kg/injection, schedule: Q04DX003 (ip), vehicle: saline)?
**A.** The T/C was 102 % of control.

**Q.** For `Cc1ccccc1S(=O)(=O)c1cccs1`, which T/C [1] is on record?
**A.** Its T/C is 98 % of control.

**Q.** What about the T/C (dose: 100.0 mg/kg/injection, schedule: Q04DX003 (ip), vehicle: acetone) of the same compound?
**A.** Its T/C is 98 % of control.

**Q.** What about the T/C [2] of the same compound?
**A.** Its T/C is 95 % of control.

**Q.** What about the T/C (dose: 200.0 mg/kg/injection, schedule: Q04DX003 (ip), vehicle: acetone) of the same compound?
**A.** The T/C was 104 % of control.

**Q.** What about the T/C [3] of the same compound?
**A.** The T/C was 93 % of control.

**Q.** And the T/C (dose: 400.0 mg/kg/injection, schedule: Q04DX003 (ip), vehicle: acetone)?
**A.** Its T/C is 93 % of control.

**Q.** How did the T/C [5] turn out when `CC(C)C(C#N)(CCCCN1CCCCC1)c1cccc2ccccc12` (stereo unspecified) was run?
**A.** Its T/C is 97 % of control.

**Q.** And the T/C [7]?
**A.** Its T/C is 93 % of control.

**Q.** Which T/C (dose: 0.37 mg/kg/injection, schedule: Q01DX009 (ip), vehicle: Klucel (hydroxypropylcellulose) (HPC)) does the source give for `CNC(=O)OCC1=CC(=O)C(OC)=CC1=O` here?
**A.** The T/C was 91 % of control.

**Q.** What about the T/C (dose: 0.75 mg/kg/injection, schedule: Q01DX009 (ip), vehicle: Klucel (hydroxypropylcellulose) (HPC)) of the same compound?
**A.** The T/C was 98 % of control.

**Q.** What about the T/C (dose: 12.5 mg/kg/injection, schedule: Q04DX003 (ip), vehicle: Klucel (hydroxypropylcellulose) (HPC)) of the same compound?
**A.** Its T/C is 92 % of control.

**Q.** What about the T/C (dose: 25.0 mg/kg/injection, schedule: Q01DX009 (ip), vehicle: Klucel (hydroxypropylcellulose) (HPC)) of the same compound?
**A.** Its T/C is 88 % of control.

**Q.** And the T/C (dose: 25.0 mg/kg/injection, schedule: Q04DX003 (ip), vehicle: Klucel (hydroxypropylcellulose) (HPC))?
**A.** Its T/C is 103 % of control.

**Q.** Which results are given for `CCOC(=O)CNC(=O)Nc1ccc(NC(C)=O)cc1`?
**A.** T/C [4]: 94 % of control; T/C [6]: 94 % of control; T/C [8]: 88 % of control

**Q.** For `CC(=O)Nc1ccc(N=Nc2ccccc2)cc1C`, which T/C (dose: 50.0 mg/kg/injection, schedule: Q04DX003 (ip), vehicle: Klucel (hydroxypropylcellulose) (HPC)) is on record?
**A.** The T/C was 100 % of control.

**Q.** And the T/C (dose: 100.0 mg/kg/injection, schedule: Q04DX003 (ip), vehicle: Klucel (hydroxypropylcellulose) (HPC))?
**A.** Its T/C is 96 % of control.

**Q.** What about the T/C (dose: 200.0 mg/kg/injection, schedule: Q04DX003 (ip), vehicle: Klucel (hydroxypropylcellulose) (HPC)) of the same compound?
**A.** Its T/C is 96 % of control.

**Q.** What does the source list for `Nc1ccn(C2OC(COC(=O)C34CC5CC(CC(C5)C3)C4)C(O)C2O)c(=O)n1` (stereo unspecified)?
**A.** T/C (dose: 50.0 mg/kg/injection, schedule: Q01DX001 (ip), vehicle: other): 156 % of control and 170 % of control; T/C (dose: 100.0 mg/kg/injection, schedule: Q01DX001 (ip), vehicle: other): 165 % of control and 248 % of control; T/C (dose: 200.0 mg/kg/injection, schedule: Q01DX001 (ip), vehicle: other): 213 % of control and 300 % of control
